This is an account of results in US7196083B2, “Heteropolycyclic inhibitors of protein kinases” (priority 2000, dated 2007).

The target in data set [1] is PKB, full-length recombinant bovine protein, alpha form (Bos taurus, UniProt Q01314). Description: PKB inhibition in vitro enzyme assay (radioactive phosphate incorporation, scintillation counting). The format is biochemical. Particulars: PKB in vitro enzyme assay, 15 min at room temperature.
The test system of the next data set is B16-F1 (murine melanoma). The experiment in a line: [3H] thymidine uptake cell proliferation assay, B16F1. The format is cell-based. Particulars: Mus musculus, read-out: Cell Proliferation Effects (IC50 (nM)).
For data set [2], the system named is B16-F10 (murine melanoma). Description: [3H] thymidine uptake cell proliferation assay, B16F10. Particulars: Mus musculus, read-out: Cell Proliferation Effects (IC50 (nM)). The format is cell-based.
The next data set deals with DU-145 (human carcinoma). Description: [3H] thymidine uptake cell proliferation assay, DU145. The format is cell-based. Particulars: read-out: Cell Proliferation Effects (IC50 (nM)).
Data set [3] concerns HT-29 human colon carcinoma. The experiment in a line: [3H] thymidine uptake cell proliferation assay, HT29. Particulars: read-out: Cell Proliferation Effects (IC50 (nM)). The format is cell-based.
Data set [4] relates to LL2 Lewis Lung human lung carcinoma. Description: [3H] thymidine uptake cell proliferation assay, LL2. The format is cell-based. Particulars: LL/2, read-out: Cell Proliferation Effects (IC50 (nM)).
The subject of data set [5] is SKOV-3 (human ovarian carcinoma). The experiment in a line: [3H] thymidine uptake cell proliferation assay, SKOV3. The format is cell-based. Particulars: SK-OV-3, read-out: Cell Proliferation Effects (IC50 (nM)).
The subject of the next data set is U-87 (human glioma). The experiment in a line: [3H] thymidine uptake cell proliferation assay, U87. The format is cell-based. How it is done:
Compounds were added to culture at mid-logarithmic growth and incubated for 20 hours. (N=8 for the values+standard errors). […] Cell lines A-549 (human lung carcinoma), B16-F1 (murine melanoma), B16-F10 (murine melanoma), DU-145 (human […] carcinoma), LS-180 (human colon carcinoma), PC3 (human prostate carcinoma), SKOV-3 (human ovarian carcinoma), U-87 (human glioma), and NIH-3T3 (murine embryonic fibroblasts) were all cultured in DMEM supplemented with 10% fetal bovine serum. M3 murine melanoma cells were cultured in DMEM/F12 1:1, and HT-29 human colon carcinoma and LL2 Lewis Lung […] lung carcinoma were cultured in RPMI1640. All the foregoing cell lines were obtained from ATCC. All cells were passaged regularly using 0.25% Trypsin-EDTA in order to maintain cells at exponential growth for various experiments. LS 180 cells were passaged without trypsin and were physically scraped off the culture flasks. In vitro [^3H] thymidine uptake assay. Proliferation can be measured by quantifying the amount of [^3H] thymidine uptake into cells using a β-counter, and therefore is a well-established diagnostic tool to measure DNA synthesis within the cells. […] The cells were allowed to adhere to the plates via incubation at 37° C. in 5% CO2 for 12–14 hours. […] Then, 10 μL of the compound was added to the pre-existing 90 μL per well, and incubated further at 37° C. in 5% CO2 for 20 hours. To measure thymidine incorporation, cells were fixed onto the culture wells by slowly adding ¼^th volume of cold 50% TCA into each well (25 μL to each well) and incubated for 1–2 hours at 4° C. Wells were washed 5 times with tap water to remove any free [^3H] thymidine in the media, and air-dried completely at room temperature. Then, 100 μL of scintillation fluid was added to each well and the activity counted using a Wallac Microbeta Counter.

For data set [6], the system named is human breast carcinoma MDA-MB-435 cell line. The experiment in a line: [3H] thymidine uptake cell proliferation assay, MDA435. The format is cell-based. Particulars: read-out: Cell Proliferation Effects (IC50 (nM)). How it is done:
The human breast carcinoma MDA-MB-435 cell line was obtained from MD Anderson Cancer Center, and cultured in alpha-MEM media supplemented with 10% Fetal Bovine Serum. Cells were maintained in T150 tissue culture flasks, and grown at 37° C. in a humidified 5% CO2 incubator. All cells were passaged regularly using 0.25% Trypsin-EDTA in order to maintain cells at exponential growth for various experiments. LS 180 cells were passaged without trypsin and were physically scraped off the culture flasks. In vitro [^3H] thymidine uptake assay. Proliferation can be measured by quantifying the amount of [^3H] thymidine uptake into cells using a β-counter, and therefore is a well-established diagnostic tool to measure DNA synthesis within the cells. […] The cells were allowed to adhere to the plates via incubation at 37° C. in 5% CO2 for 12–14 hours. […] Then, 10 μL of the compound was added to the pre-existing 90 μL per well, and incubated further at 37° C. in 5% CO2 for 20 hours. To measure thymidine incorporation, cells were fixed onto the culture wells by slowly adding ¼^th volume of cold 50% TCA into each well (25 μL to each well) and incubated for 1–2 hours at 4° C. […] Then, 100 μL of scintillation fluid was added to each well and the activity counted using a Wallac Microbeta Counter.

The nature of another data set: physchem. The source says:
Solubility of KP-23172 was studied in various percent solutions of hydroxypropyl-B-cyclodextrin in water.

Another data set addresses T1, PKB gamma (Homo sapiens, UniProt Q9Y243).
T1 construct: endogenous in cells; host or cells: U87 cells
Description: Kinase assay in U87 cells using anti PKB gamma antibody. Particulars: U-87 MG, 1 h, after 60 min, read-out: PKB gamma isoform activity, reduction of activity to. The format is cell-based. How it is done: In preparation for this assay, each cell line was seeded at a density of 3 times 1,000,000 cells per plate onto 150 mm culture dishes and allowed to establish o/n at 37 deg C. A confluency of 50–60% was obtained to ensure maximal drug penetration into each cell. Once the cells were adherent to the culture plates, there were treated with PKB inhibitor KP-23172 for a final conc. of 5 uM. Each culture plate was lysed on ice at specific time intervals using 1% NP-40 lysis buffer containing various protease inhibitors; 10 ug/uL aprotinin, 10 ug/ul leupeptin, 1 ug/ul pepstatin, 1 M beta-glycerophosphate and 100 mM PMSF. The resulting lysates were centrifuged at 15K×g at 4 deg C. for 5 min and then assayed for its protein conc. using Bradford's Reagent and absorbance measurements at 595 nm. Equal amounts of protein were transferred to a new centrifuge tube and treated with anti-PKB-PH antibody (Kinetek #XXP-021), anti-PKBalpha antibody (Signal Transduction #67220), or anti-PKB gamma antibody (UBI 306-607) and incubated end over end at 4 deg C. […] All vials were counted for one minute in the scintillation counter.
A kinase assay in cells was also performed using anti PKB alpha and gamma antibodies in order to determine any inhibition of the isoforms by KP-23172. U87 cells were treated with 5 uM compound, lysed, and the resulting supernatant was analyzed for any changed in PKB activity. […]

In general, solubility refers to how much of the substance goes into solution per volume. Read a high solubility as much dissolved substance.

In brackets after ≈: the same amount, converted by molar mass. Where two headings read alike, the source gives them in different places.

T1 sequence (Q9Y243 whole entry): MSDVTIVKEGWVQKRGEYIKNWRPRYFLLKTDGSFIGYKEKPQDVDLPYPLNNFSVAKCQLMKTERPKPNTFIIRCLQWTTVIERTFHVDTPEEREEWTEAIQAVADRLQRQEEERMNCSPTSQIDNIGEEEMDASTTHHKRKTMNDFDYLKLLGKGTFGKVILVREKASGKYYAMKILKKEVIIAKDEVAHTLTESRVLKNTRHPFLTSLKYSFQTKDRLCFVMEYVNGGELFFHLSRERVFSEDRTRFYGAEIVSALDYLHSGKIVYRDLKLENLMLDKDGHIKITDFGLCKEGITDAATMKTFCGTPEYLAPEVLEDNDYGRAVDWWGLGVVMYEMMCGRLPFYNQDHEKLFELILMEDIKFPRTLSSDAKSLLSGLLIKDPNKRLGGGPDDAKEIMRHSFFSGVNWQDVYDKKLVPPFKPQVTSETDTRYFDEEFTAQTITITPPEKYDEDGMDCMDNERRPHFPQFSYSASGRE
Sequence of PKB, full-length recombinant bovine protein, alpha form (Q01314 whole entry): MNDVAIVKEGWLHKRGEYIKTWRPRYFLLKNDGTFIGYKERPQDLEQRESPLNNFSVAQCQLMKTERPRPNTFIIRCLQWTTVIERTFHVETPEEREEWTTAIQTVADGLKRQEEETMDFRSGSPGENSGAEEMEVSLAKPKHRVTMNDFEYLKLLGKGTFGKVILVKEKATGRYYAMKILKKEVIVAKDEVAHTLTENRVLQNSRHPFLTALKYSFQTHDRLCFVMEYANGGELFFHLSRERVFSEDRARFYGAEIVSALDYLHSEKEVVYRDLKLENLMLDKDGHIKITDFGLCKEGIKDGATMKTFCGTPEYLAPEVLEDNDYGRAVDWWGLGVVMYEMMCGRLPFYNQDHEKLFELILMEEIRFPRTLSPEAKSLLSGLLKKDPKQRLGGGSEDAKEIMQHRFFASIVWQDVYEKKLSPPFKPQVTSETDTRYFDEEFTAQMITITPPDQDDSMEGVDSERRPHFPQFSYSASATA

On to `O=C1c2ccccc2-c2nc3nnnn3nc21` [KP-23172], for which the IC50 came out at 15 µM in data set [1]; 60 nM in the data set on B16-F1 (murine melanoma); 400 nM in data set [2]; 50 nM in the data set on DU-145 (human carcinoma); 200 nM in [3]; 400 nM in [4]. Also, the IC50 is 200 nM in [5]; 50 nM in the data set with U-87 (human glioma) (U-87 MG, U87, read-out: Cell Proliferation Effects (IC50 (nM))); 50 nM in the data set with U-87 (human glioma) (added at mid-logarithmic growth, incubated 20 hours, N=8, read-out: U87 proliferation (thymidine incorporation) IC50, FIG. 1); 60 nM in data set [6]. Besides, the “1:1 binding constant for the cyclodextrin inclusion complex” value in the data set “physchem” is listed as 474. In addition, the solubility in “physchem” (aqueous with cosolvent or surfactant or cyclodextrin) is 728 µg/mL (≈ 3250 µM); in “physchem” (water), 77 µg/mL (≈ 343 µM). For the same compound, the activity at 5 µM at PKB gamma came out at 18.3%.
